Results published in patent publication US20210253568A1, “AZAINDOLE DERIVATIVES AS RHO-KINASE INHIBITORS” (CHIESI FARMACEUTICI S.p.A., priority 2018, published 2021).

Experiments:
ROCK 1 = ROCK 1 (Homo sapiens, UniProt Q13464); assay: In vitro Rho kinase inhibitory activity assay (ADP-Glo), Rho kinase 1; assay type: biochemical; conditions: Ki by Cheng-Prusoff from IC50; 10 μM ATP, 25° C., expressed as range of activity
Experimental: (§1) The effectiveness of compounds of the present invention to inhibit Rho kinase activity can be determined in a 10 μl assay containing 40 mM Tris pH7.5, 20 mM MgCl2 0.1 mg/mi BSA, 50 μM DTT and 2.5 μM peptide substrate (Myelin Basic Protein) using an ADP-Glo kit (Promega). Compounds were dissolved in DMSO such that the final concentration of DMSO was 1% in the assay. All reactions/incubations are performed at 25° C. Compound (2 ul) and either Rho kinase 1 or 2 (4 μl) were mixed and incubated for 30 mins. Reactions were initiated by addition of ATP (4 μl) such that the final concentration of ATP in the assay was 10 μM. After a 1 hour incubation 10 μl of ADP-Glo Reagent was added and after a further 45 minute incubation 20 ul of Kinase Detection Buffer was added and the mixture incubated for a further 30 minutes. The luminescent signal was measured on a luminometer. […] Compounds were tested in dose-response format and the inhibition of kinase activity was calculated at each concentration of compound. To determine the IC50 (concentration of compound required to inhibit 50% of the enzyme activity) data were fit to a plot of % inhibition vs Log10 compound concentration using a sigmoidal fit with a variable slope and fixing the maximum to 100% and the minimum to 0%. To determine the Ki values the Cheng-Prusoff equation was utilized (Ki=IC50/(1+[S]/Km).

ROCK 2 = ROCK 2 (Homo sapiens, UniProt O75116); assay: In vitro Rho kinase inhibitory activity assay (ADP-Glo), Rho kinase 2; assay type: biochemical; conditions: Ki by Cheng-Prusoff from IC50; 10 μM ATP, 25° C., expressed as range of activity
Sequence of ROCK 2 (O75116 whole entry): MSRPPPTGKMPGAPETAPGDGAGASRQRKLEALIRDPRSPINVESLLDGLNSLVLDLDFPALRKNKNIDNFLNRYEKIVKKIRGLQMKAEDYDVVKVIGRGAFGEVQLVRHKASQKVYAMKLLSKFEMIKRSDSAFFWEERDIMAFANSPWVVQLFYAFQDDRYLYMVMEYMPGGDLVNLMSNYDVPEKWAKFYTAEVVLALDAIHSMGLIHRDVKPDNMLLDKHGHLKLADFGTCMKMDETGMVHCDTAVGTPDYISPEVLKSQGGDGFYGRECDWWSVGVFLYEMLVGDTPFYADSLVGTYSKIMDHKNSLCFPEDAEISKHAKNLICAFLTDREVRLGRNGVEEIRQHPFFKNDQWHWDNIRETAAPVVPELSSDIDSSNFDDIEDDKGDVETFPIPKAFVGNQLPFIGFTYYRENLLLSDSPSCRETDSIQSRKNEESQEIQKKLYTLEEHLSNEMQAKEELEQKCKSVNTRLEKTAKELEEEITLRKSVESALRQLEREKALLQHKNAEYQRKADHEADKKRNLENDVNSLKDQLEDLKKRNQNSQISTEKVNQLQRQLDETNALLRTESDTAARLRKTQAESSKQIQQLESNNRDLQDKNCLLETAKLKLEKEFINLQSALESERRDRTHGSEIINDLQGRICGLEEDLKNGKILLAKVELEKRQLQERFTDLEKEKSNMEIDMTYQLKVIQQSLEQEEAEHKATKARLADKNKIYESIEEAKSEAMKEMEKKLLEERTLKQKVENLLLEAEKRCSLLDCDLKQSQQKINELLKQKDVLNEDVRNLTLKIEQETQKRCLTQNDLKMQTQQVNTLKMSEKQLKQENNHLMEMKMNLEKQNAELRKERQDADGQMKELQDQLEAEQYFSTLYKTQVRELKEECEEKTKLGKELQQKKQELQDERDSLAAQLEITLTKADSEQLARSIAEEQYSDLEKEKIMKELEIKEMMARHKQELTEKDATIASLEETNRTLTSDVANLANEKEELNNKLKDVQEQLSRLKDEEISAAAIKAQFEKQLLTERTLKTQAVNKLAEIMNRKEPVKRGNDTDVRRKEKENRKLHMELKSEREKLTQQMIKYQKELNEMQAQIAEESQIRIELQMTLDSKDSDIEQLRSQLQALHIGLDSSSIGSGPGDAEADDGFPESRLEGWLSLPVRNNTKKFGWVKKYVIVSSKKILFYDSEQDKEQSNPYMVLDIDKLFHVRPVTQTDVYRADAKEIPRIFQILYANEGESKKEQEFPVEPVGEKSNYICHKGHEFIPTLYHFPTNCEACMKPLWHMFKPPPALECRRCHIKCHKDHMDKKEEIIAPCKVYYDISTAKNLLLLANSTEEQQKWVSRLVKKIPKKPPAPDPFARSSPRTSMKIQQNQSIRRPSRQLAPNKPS
Experimental: as §1

Sequence of ROCK 1 (Q13464 whole entry): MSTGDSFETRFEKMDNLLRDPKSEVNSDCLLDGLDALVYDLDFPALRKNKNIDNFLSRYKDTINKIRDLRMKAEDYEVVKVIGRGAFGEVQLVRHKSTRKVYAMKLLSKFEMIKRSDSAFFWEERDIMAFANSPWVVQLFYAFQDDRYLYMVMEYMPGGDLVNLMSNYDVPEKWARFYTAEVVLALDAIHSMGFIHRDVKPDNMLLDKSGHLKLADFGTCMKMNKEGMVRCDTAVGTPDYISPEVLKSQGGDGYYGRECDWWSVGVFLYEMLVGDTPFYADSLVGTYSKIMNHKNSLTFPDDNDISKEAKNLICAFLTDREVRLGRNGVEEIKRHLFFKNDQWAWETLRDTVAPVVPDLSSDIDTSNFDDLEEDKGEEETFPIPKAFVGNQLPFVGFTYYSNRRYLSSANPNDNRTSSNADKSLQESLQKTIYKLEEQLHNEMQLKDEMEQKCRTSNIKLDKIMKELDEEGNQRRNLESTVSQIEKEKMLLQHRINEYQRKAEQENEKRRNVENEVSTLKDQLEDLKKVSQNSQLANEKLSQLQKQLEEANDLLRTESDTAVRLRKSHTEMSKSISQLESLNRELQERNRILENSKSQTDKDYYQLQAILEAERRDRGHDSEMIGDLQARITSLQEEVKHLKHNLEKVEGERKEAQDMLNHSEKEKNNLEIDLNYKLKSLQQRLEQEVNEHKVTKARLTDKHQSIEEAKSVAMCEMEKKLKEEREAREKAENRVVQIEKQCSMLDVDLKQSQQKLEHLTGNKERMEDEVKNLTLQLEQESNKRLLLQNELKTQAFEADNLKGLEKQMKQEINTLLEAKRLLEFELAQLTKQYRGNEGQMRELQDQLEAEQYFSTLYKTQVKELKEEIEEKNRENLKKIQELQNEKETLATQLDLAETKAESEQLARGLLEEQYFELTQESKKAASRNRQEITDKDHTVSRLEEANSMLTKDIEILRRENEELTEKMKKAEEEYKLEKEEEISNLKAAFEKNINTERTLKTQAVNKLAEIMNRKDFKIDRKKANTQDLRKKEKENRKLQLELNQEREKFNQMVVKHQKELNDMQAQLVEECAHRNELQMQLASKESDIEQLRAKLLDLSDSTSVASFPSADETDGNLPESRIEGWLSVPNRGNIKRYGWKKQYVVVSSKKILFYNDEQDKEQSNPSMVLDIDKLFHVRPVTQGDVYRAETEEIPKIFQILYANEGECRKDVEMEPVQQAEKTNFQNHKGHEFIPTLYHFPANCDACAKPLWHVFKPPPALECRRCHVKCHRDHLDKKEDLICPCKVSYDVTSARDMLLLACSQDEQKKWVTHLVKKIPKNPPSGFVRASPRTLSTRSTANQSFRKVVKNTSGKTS

Ki (ROCK 1) | Ki (ROCK 2) | SMILES
< 3 nM | < 3 nM | c1cc(-c2c[nH]c3nccc(Oc4ccc5c(c4)CNCC5)c23)ccn1 [Example 1, 7-((3-(pyridin-4-yl)-1H-pyrrolo[2,3-b]pyridin-4-yl)oxy)-1,2,3,4-tetrahydroisoquinoline]
3 to 30 nM | < 3 nM | Fc1cc2c(cc1Oc1ncnc3[nH]cc(-c4ccnc(NCc5ccccc5)c4)c13)CNCC2 [Example 6, N-benzyl-4-(4-((6-fluoro-1,2,3,4-tetrahydroisoquinolin-7-yl)oxy)-7H-pyrrolo[2,3-d]pyrimidin-5-yl)pyridin-2-amine]
3 to 30 nM | < 3 nM | c1ccc(CNc2cc(-c3c[nH]c4nccc(Oc5ccc6c(c5)CNCC6)c34)on2)cc1 [Example 9, N-benzyl-5-(4-((1,2,3,4-tetrahydroisoquinolin-7-yl)oxy)-1H-pyrrolo[2,3-b]pyridin-3-yl)isoxazol-3-amine]
3 to 30 nM | < 3 nM | O=C(Cn1cc(-c2c[nH]c3nccc(Oc4ccc5c(c4)CNCC5)c23)nn1)NCc1ccccc1 [Example 12, N-benzyl-2-(4-(4-((1,2,3,4-tetrahydroisoquinolin-7-yl)oxy)-1H-pyrrolo[2,3-b]pyridin-3-yl)-1H-1,2,3-triazol-1-yl)acetamide]
3 to 30 nM | < 3 nM | O=C(NCc1ccccc1)c1cc(-c2c[nH]c3nccc(Oc4ccc5c(c4)CNCC5)c23)on1 [Example 13, N-benzyl-5-(4-((1,2,3,4-tetrahydroisoquinolin-7-yl)oxy)-1H-pyrrolo[2,3-b]pyridin-3-yl)isoxazole-3-carboxamide]
< 3 nM | < 3 nM | O=C(Cc1ccccc1)Nc1nnc(-c2c[nH]c3nccc(Oc4ccc5c(c4)CNCC5)c23)o1 [Example 14, 2-phenyl-N-(5-(4-((1,2,3,4-tetrahydroisoquinolin-7-yl)oxy)-1H-pyrrolo[2,3-b]pyridin-3-yl)-1,3,4-oxadiazol-2-yl)acetamide]
< 3 nM | < 3 nM | c1cncc(CNc2cc(-c3c[nH]c4nccc(Oc5ccc6c(c5)CNCC6)c34)ccn2)c1 [Example 16, N-(pyridin-3-ylmethyl)-4-(4-((1,2,3,4-tetrahydroisoquinolin-7-yl)oxy)-1H-pyrrolo[2,3-b]pyridin-3-yl)pyridin-2-amine]
3 to 30 nM | < 3 nM | COCCNc1cc(-c2c[nH]c3nccc(Oc4ccc5c(c4)CNCC5)c23)ccn1 [Example 20, N-(2-methoxyethyl)-4-(4-((1,2,3,4-tetrahydroisoquinolin-7-yl)oxy)-1H-pyrrolo[2,3-b]pyridin-3-yl)pyridin-2-amine]
< 3 nM | < 3 nM | c1ccc(CNc2cc(-c3c[nH]c4nccc(Oc5ccc6c(c5)CNCC6)c34)ncn2)cc1 [Example 25, N-benzyl-6-(4-((1,2,3,4-tetrahydroisoquinolin-7-yl)oxy)-1H-pyrrolo[2,3-b]pyridin-3-yl)pyrimidin-4-amine]
< 3 nM | < 3 nM | c1ccc(CNc2nccc(-c3c[nH]c4nccc(Oc5ccc6c(c5)CNCC6)c34)n2)cc1 [Example 26, N-benzyl-4-(4-((1,2,3,4-tetrahydroisoquinolin-7-yl)oxy)-1H-pyrrolo[2,3-b]pyridin-3-yl)pyrimidin-2-amine]
> 30 nM | > 30 nM | c1ccc(CNc2cccc(-c3c[nH]c4nccc(Oc5ccc6c(c5)CNCC6)c34)n2)cc1 [Example 27, N-benzyl-6-(4-((1,2,3,4-tetrahydroisoquinolin-7-yl)oxy)-1H-pyrrolo[2,3-b]pyridin-3-yl)pyridin-2-amine]
> 30 nM | > 30 nM | c1ccc(CNc2ccnc(-c3c[nH]c4nccc(Oc5ccc6c(c5)CNCC6)c34)n2)cc1 [Example 28, N-benzyl-2-(4-((1,2,3,4-tetrahydroisoquinolin-7-yl)oxy)-1H-pyrrolo[2,3-b]pyridin-3-yl)pyrimidin-4-amine]
< 3 nM | < 3 nM | O=S(=O)(CCNc1cc(-c2c[nH]c3nccc(Oc4ccc5c(c4)CNCC5)c23)ncn1)c1ccccc1 [Example 29, N-(2-(phenylsulfonyl)ethyl)-6-(4-((1,2,3,4-tetrahydroisoquinolin-7-yl)oxy)-1H-pyrrolo[2,3-b]pyridin-3-yl)pyrimidin-4-amine]

Further lines, the molecule ahead of its results:

SMILES | Ki (ROCK 1) | Ki (ROCK 2)
NCc1ccc(Oc2ccnc3[nH]cc(-c4cncc(OCc5ccccc5)c4)c23)cc1 [Example 2, (4-((3-(5-(benzyloxy)pyridin-3-yl)-1H-pyrrolo[2,3-b]pyridin-4-yl)oxy)phenyl)methanamine] | > 30 nM | > 30 nM
NCc1ccc(Oc2ccnc3[nH]cc(-c4cccc(OCc5ccccc5)c4)c23)cc1 [Example 3, (4-((3-(3-(benzyloxy)phenyl)-1H-pyrrolo[2,3-b]pyridin-4-yl)oxy)phenyl)methanamine] | > 30 nM | > 30 nM
Cc1ccc(S(=O)(=O)CCNc2cc(-c3c[nH]c4nccc(Oc5c(F)cc(CN)cc5F)c34)ncn2)cc1 [Example 4, 6-(4-(4-(aminomethyl)-2,6-difluorophenoxy)-1H-pyrrolo[2,3-b]pyridin-3-yl)-N-(2-tosylethyl)pyrimidin-4-amine] | < 3 nM | < 3 nM
NCc1cc(F)c(Oc2ncnc3[nH]cc(-c4ccnc(NCc5ccccc5)c4)c23)c(F)c1 [Example 5, 4-(4-(4-(aminomethyl)-2,6-difluorophenoxy)-7H-pyrrolo[2,3-d]pyrimidin-5-yl)-N-benzylpyridin-2-amine] | < 3 nM | < 3 nM
NCc1cc(F)c(Oc2ccnc3[nH]cc(-c4ccnc(NCc5cccnc5)c4)c23)c(F)c1 [Example 7, 4-(4-(4-(aminomethyl)-2,6-difluorophenoxy)-1H-pyrrolo[2,3-b]pyridin-3-yl)-N-(pyridin-3-ylmethyl)pyridin-2-amine] | < 3 nM | < 3 nM
NCc1cc(F)c(Oc2ccnc3[nH]cc(-c4ccnc(NCC5CC5)c4)c23)c(F)c1 [Example 8, 4-(4-(4-(aminomethyl)-2,6-difluorophenoxy)-1H-pyrrolo[2,3-b]pyridin-3-yl)-N-(cyclopropylmethyl)pyridin-2-amine] | < 3 nM | < 3 nM
O=C(NC1CC1)C1CCN(c2cc(-c3c[nH]c4nccc(Oc5ccc6c(c5)CNCC6)c34)ccn2)C1 (stereo not shown) [Example 10, N-cyclopropyl-1-(4-(4-((1,2,3,4-tetrahydroisoquinolin-7-yl)oxy)-1H-pyrrolo[2,3-b]pyridin-3-yl)pyridin-2-yl)pyrrolidine-3-carboxamide] | < 3 nM | < 3 nM
NCc1cc(F)c(Oc2ccnc3[nH]cc(-c4ccnc(NC(=O)C5CC5)c4)c23)c(F)c1 [Example 11, N-(4-(4-(4-(aminomethyl)-2,6-difluorophenoxy)-1H-pyrrolo[2,3-b]pyridin-3-yl)pyridin-2-yl)cyclopropanecarboxamide] | < 3 nM | < 3 nM
NCc1ccc(Oc2ccnc3[nH]cc(-c4ccnc(NCc5ccccc5)c4)c23)cc1 [Example 15, 4-(4-(4-(aminomethyl)phenoxy)-1H-pyrrolo[2,3-b]pyridin-3-yl)-N-benzylpyridin-2-amine] | 3 to 30 nM | < 3 nM
c1cc(-c2c[nH]c3nccc(Oc4ccc5c(c4)CNCC5)c23)cc(N2CCOCC2)n1 [Example 17, 4-(4-(4-((1,2,3,4-tetrahydroisoquinolin-7-yl)oxy)-1H-pyrrolo[2,3-b]pyridin-3-yl)pyridin-2-yl)morpholine] | < 3 nM | < 3 nM
c1cc(-c2c[nH]c3nccc(Oc4ccc5c(c4)CNCC5)c23)cc(NC[C@@H]2CCCO2)n1 [Example 18, (S)-N-((tetrahydrofuran-2-yl)methyl)-4-(4-((1,2,3,4-tetrahydroisoquinolin-7-yl)oxy)-1H-pyrrolo[2,3-b]pyridin-3-yl)pyridin-2-amine] | < 3 nM | < 3 nM
c1cc(-c2c[nH]c3nccc(Oc4ccc5c(c4)CNCC5)c23)cc(NC[C@H]2CCCO2)n1 [Example 19, (R)-N-((tetrahydrofuran-2-yl)methyl)-4-(4-((1,2,3,4-tetrahydroisoquinolin-7-yl)oxy)-1H-pyrrolo[2,3-b]pyridin-3-yl)pyridin-2-amine] | < 3 nM | < 3 nM
Cn1cc(-c2c[nH]c3nccc(Oc4ccc5c(c4)CNCC5)c23)cn1 [Example 21, 7-((3-(1-methyl-1H-pyrazol-4-yl)-1H-pyrrolo[2,3-b]pyridin-4-yl)oxy)-1,2,3,4-tetrahydroisoquinoline] | < 3 nM | < 3 nM
NCc1ccc(Oc2ccnc3[nH]cc(-c4cnn(Cc5ccccc5)c4)c23)c(F)c1 [Example 22, (4-((3-(1-benzyl-1H-pyrazol-4-yl)-1H-pyrrolo[2,3-b]pyridin-4-yl)oxy)-3-fluorophenyl)methanamine] | < 3 nM | < 3 nM
NCc1ccc(Oc2ccnc3[nH]cc(-c4cnn(Cc5ccncc5)c4)c23)c(F)c1 [Example 23, (3-fluoro-4-((3-(1-(pyridin-4-ylmethyl)-1H-pyrazol-4-yl)-1H-pyrrolo[2,3-b]pyridin-4-yl)oxy)phenyl)methanamine] | 3 to 30 nM | < 3 nM
NCc1ccc(Oc2ccnc3[nH]cc(-c4cnn(CC5CCOCC5)c4)c23)c(F)c1 [Example 24, (3-fluoro-4-((3-(1-((tetrahydro-2H-pyran-4-yl)methyl)-1H-pyrazol-4-yl)-1H-pyrrolo[2,3-b]pyridin-4-yl)oxy)phenyl)methanamine] | 3 to 30 nM | < 3 nM
